Measured values: patent US7160888B2, “[1,8]naphthyridin-2-ones and related compounds for the treatment of schizophrenia” (Warner Lambert Company LLC, priority 2003, dated 2007)

molecular target: D2 receptor (Homo sapiens, UniProt P14416); assay: [3H]Thymidine uptake assay for D2 intrinsic activity; format: cell-based; conditions: Table 1; test compound 1 μM; 1 μM Quinpirole = 100% intrinsic activity
Sequence (P14416 whole entry): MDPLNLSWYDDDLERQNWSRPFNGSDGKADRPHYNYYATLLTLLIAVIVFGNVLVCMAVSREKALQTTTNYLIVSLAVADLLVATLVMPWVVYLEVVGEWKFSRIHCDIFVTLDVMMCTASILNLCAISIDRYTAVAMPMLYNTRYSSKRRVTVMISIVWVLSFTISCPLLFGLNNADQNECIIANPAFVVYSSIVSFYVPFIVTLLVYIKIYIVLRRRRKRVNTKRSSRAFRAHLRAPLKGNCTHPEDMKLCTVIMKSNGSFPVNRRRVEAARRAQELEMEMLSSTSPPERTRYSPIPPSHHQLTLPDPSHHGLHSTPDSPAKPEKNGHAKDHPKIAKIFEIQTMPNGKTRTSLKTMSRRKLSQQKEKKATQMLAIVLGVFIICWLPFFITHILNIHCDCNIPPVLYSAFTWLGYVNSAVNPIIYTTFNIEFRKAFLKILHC

Row | SMILES | Emax at 1 µM [%]
1 | CC1CC(=O)Nc2nc(OCCCCN3CCN(c4cccc(Cl)c4Cl)CC3)ccc21 (single isomer, unassigned) [Example D2a, 7-{4-[4-(2,3-Dichloro-phenyl)-piperazin-1-yl]-butoxy}-4-methyl-3,4-dihydro-1H-[1,8]naphthyridin-2-one] | 20
2 | CC1Cc2ccc(OCCCCN3CCN(c4cccc(Cl)c4Cl)CC3)nc2NC1=O (single isomer, unassigned) [Example D6a, 7-{4-[4-(2,3-Dichloro-phenyl)-piperazin-1-yl]-butoxy}-3-methyl-3,4-dihydro-1H-[1,8]naphthyridin-2-one] | 17
3 | O=C1CCc2ccc(OCCCCN3CCN(c4ccc(F)c(Cl)c4Cl)CC3)nc2N1 [Example A8, 7-{4-[4-(2,3-Dichloro-4-fluoro-phenyl)-piperazin-1-yl]-butoxy}-3,4-dihydro-1H-[1,8]naphthyridin-2-one] | 7
4 | O=C1CCc2ccc(OCCCCN3CCN(c4ccc(F)cc4Cl)CC3)nc2N1 [Example A9, 7-{4-[4-(2-Chloro-4-fluoro-phenyl)-piperazin-1-yl]-butoxy}-3,4-dihydro-1H-[1,8]naphthyridin-2-one] | 9
5 | O=C1CCc2ccc(OCCCCN3CCN(c4ccccc4-c4ccccc4)CC3)nc2N1 [Example A11, 7-[4-(4-Biphenyl-2-yl-piperazin-1-yl)-butoxy]-3,4-dihydro-1H-[1,8]naphthyridin-2-one] | 6
6 | O=C1CCc2ccc(OCCCCN3CCN(c4cc(Cl)ccc4Cl)CC3)nc2N1 [Example A12, 7-{4-[4-(2,5-Dichloro-phenyl)-piperazin-1-yl]-butoxy}-3,4-dihydro-1H-[1,8]naphthyridin-2-one] | 11
7 | Cc1cc(N2CCN(CCCCOc3ccc4c(n3)NC(=O)CC4)CC2)c(Cl)cc1F [Example A13, 7-{4-[4-(2-Chloro-4-fluoro-5-methyl-phenyl)-piperazin-1-yl]-butoxy}-3,4-dihydro-1H-[1,8]naphthyridin-2-one] | 21
8 | Cc1ccc(Cl)cc1N1CCN(CCCCOc2ccc3c(n2)NC(=O)CC3)CC1 [Example A14, 7-{4-[4-(5-Chloro-2-methyl-phenyl)-piperazin-1-yl]-butoxy}-3,4-dihydro-1H-[1,8]naphthyridin-2-one] | 7
9 | Cc1c(F)ccc(N2CCN(CCCCOc3ccc4c(n3)NC(=O)CC4)CC2)c1Cl [Example A15, 7-{4-[4-(2-Chloro-4-fluoro-3-methyl-phenyl)-piperazin-1-yl]-butoxy}-3,4-dihydro-1H-[1,8]naphthyridin-2-one] | 4
10 | CCc1cccc(N2CCN(CCCCOc3ccc4c(n3)NC(=O)CC4)CC2)c1 [Example A16, 7-{4-[4-(3-Ethyl-phenyl)-piperazin-1-yl]-butoxy}-3,4-dihydro-1H-[1,8]naphthyridin-2-one] | 16
11 | COc1c(Cl)cccc1N1CCN(CCCCOc2ccc3c(n2)NC(=O)CC3)CC1 [Example A17, 7-{4-[4-(3-Chloro-2-methoxy-phenyl)-piperazin-1-yl]-butoxy}-3,4-dihydro-1H-[1,8]naphthyridin-2-one] | 15
12 | COc1cccc(N2CCN(CCCCOc3ccc4c(n3)NC(=O)CC4)CC2)c1OC [Example A19, 7-{4-[4-(2,3-Dimethoxy-phenyl)-piperazin-1-yl]-butoxy}-3,4-dihydro-1H-[1,8]naphthyridin-2-one] | 10
13 | CCOc1ccccc1N1CCN(CCCCOc2ccc3c(n2)NC(=O)CC3)CC1 [Example A20, 7-{4-[4-(2-Ethoxy-phenyl)-piperazin-1-yl]-butoxy}-3,4-dihydro-1H-[1,8]naphthyridin-2-one] | 19
14 | COc1cccc(N2CCN(CCCCOc3ccc4c(n3)NC(=O)CC4)CC2)c1Cl [Example A22, 7-{4-[4-(2-Chloro-3-methoxy-phenyl)-piperazin-1-yl]-butoxy}-3,4-dihydro-1H-[1,8]naphthyridin-2-one] | 36
15 | CC(C)Oc1ccc(Cl)cc1N1CCN(CCCCOc2ccc3c(n2)NC(=O)CC3)CC1 [Example A25, 7-{4-[4-(5-Chloro-2-isopropoxy-phenyl)-piperazin-1-yl]-butoxy}-3,4-dihydro-1H-[1,8]naphthyridin-2-one] | 27
16 | CC(C)Oc1ccccc1N1CCN(CCCCOc2ccc3c(n2)NC(=O)CC3)CC1 [Example A26, 7-{4-[4-(2-Isopropoxy-phenyl)-piperazin-1-yl]-butoxy}-3,4-dihydro-1H-[1,8]naphthyridin-2-one] | 33

same assay, conditions: Table 2; test compound 1 μM; 1 μM Quinpirole = 100% intrinsic activity

Row | SMILES | Emax at 1 µM [%]
17 | O=C1CCc2ccc(OCCCCN3CCN(c4cccc5[nH]c(=O)oc45)CC3)nc2N1 [Example A1′, 7-{4-[4-(2-Oxo-2,3-dihydro-benzooxazol-7-yl)-piperazin-1-yl]-butoxy}-3,4-dihydro-1H-[1,8]naphthyridin-2-one] | 73
18 | O=C1CCc2ccc(OCCCCN3CCN(c4cccc5c4OCC5)CC3)nc2N1 [Example A2′, 7-{4-[4-(2,3-Dihydro-benzofuran-7-yl)-piperazin-1-yl]-butoxy}-3,4-dihydro-1H-[1,8]naphthyridin-2-one] | 21
19 | CC1(C)Cc2cccc(N3CCN(CCCCOc4ccc5c(n4)NC(=O)CC5)CC3)c2O1 [Example A3′, 7-{4-[4-(2,2-Dimethyl-2,3-dihydro-benzofuran-7-yl)-piperazin-1-yl]-butoxy}-3,4-dihydro-1H-[1,8]naphthyridin-2-one] | 37
20 | O=C1CCc2ccc(OCCCCN3CCN(c4cccc5c4OCCC5)CC3)nc2N1 [Example A4′, 7-[4-(4-Chroman-8-yl-piperazin-1-yl)-butoxy]-3,4-dihydro-1H-[1,8]naphthyridin-2-one] | 18
21 | CC1(C)C=Cc2cccc(N3CCN(CCCCOc4ccc5c(n4)NC(=O)CC5)CC3)c2O1 [Example A5′, 7-{4-[4-(2,2-Dimethyl-2H-chromen-8-yl)-piperazin-1-yl]-butoxy}-3,4-dihydro-1H-[1,8]naphthyridin-2-one] | 31
22 | CC1(C)CCc2cccc(N3CCN(CCCCOc4ccc5c(n4)NC(=O)CC5)CC3)c2O1 [Example A6′, 7-{4-[4-(2,2-Dimethyl-chroman-8-yl)-piperazin-1-yl]-butoxy}-3,4-dihydro-1H-[1,8]naphthyridin-2-one] | 42
23 | O=C1CCc2ccc(OCCCCN3CCN(c4cccc5c4OC4(C=C5)CCCC4)CC3)nc2N1 [Example A7′, 7-{4-[4-(Spiro[chromene-2,1′-cyclopentan]-8-yl)-piperazin-1-yl]-butoxy}-3,4-dihydro-1H-[1,8]naphthyridin-2-one] | 34
24 | O=C1CCc2ccc(OCCCCN3CCN(c4cccc5c4OC4(CCCC4)CC5)CC3)nc2N1 [Example A8′, 7-{4-[4-(3,4-Dihydrospiro[chromene-2,1′-cyclopentan]-8-yl)-piperazin-1-yl]-butoxy}-3,4-dihydro-1H-[1,8]naphthyridin-2-one] | 30
25 | CC1C=Cc2cccc(N3CCN(CCCCOc4ccc5c(n4)NC(=O)CC5)CC3)c2O1 (stereo not drawn) [Example A9′, 7-{4-[4-(2-Methyl-2H-chromen-8-yl)-piperazin-1-yl]-butoxy}-3,4-dihydro-1H-[1,8]naphthyridin-2-one] | 30
26 | O=C1CCc2ccc(OCCCCN3CCN(c4cccc5c4CCO5)CC3)nc2N1 [Example A11′, 7-{4-[4-(2,3-Dihydro-benzofuran-4-yl)-piperazin-1-yl]-butoxy}-3,4-dihydro-1H-[1,8]naphthyridin-2-one] | 17
27 | O=C1CCc2ccc(OCCCCN3CCN(c4cccc5c4CCCO5)CC3)nc2N1 [Example A13′, 7-[4-(4-Chroman-5-yl-piperazin-1-yl)-butoxy]-3,4-dihydro-1H-[1,8]naphthyridin-2-one] | 14
28 | O=C1CCc2ccc(OCCCCN3CCN(c4cccc5c4OCCO5)CC3)nc2N1 [Example A16′, 7-{4-[4-(2,3-Dihydro-benzo[1,4]dioxin-5-yl)-piperazin-1-yl]-butoxy}-3,4-dihydro-1H-[1,8]naphthyridin-2-one] | 15
29 | O=C1CCc2ccc(OCCCCN3CCN(c4cccc5c4OCCCO5)CC3)nc2N1 [Example A17′, 7-{4-[4-(3,4-Dihydro-2H-benzo[b][1,4]dioxepin-6-yl)-piperazin-1-yl]-butoxy}-3,4-dihydro-1H-[1,8]naphthyridin-2-one] | 15
30 | O=C1CCc2ccc(OCCCCN3CCN(c4cccc5c4OC(F)(F)C(F)(F)O5)CC3)nc2N1 [Example A18′, 7-{4-[4-(2,2,3,3-Tetrafluoro-2,3-dihydro-benzo[1,4]dioxin-5-yl)-piperazin-1-yl]-butoxy}-3,4-dihydro-1H-[1,8]naphthyridin-2-one] | 13
31 | O=C1CCc2ccc(OCCCCN3CCN(c4cccc5c4OC(F)(F)O5)CC3)nc2N1 [Example A19′, 7-{4-[4-(2,2-Difluoro-benzo[1,3]dioxol-4-yl)-piperazin-1-yl]-butoxy}-3,4-dihydro-1H-[1,8]naphthyridin-2-one] | 40
32 | CC1(C)COc2c(cccc2N2CCN(CCCCOc3ccc4c(n3)NC(=O)CC4)CC2)C1=O [Example A21′, 7-{4-[4-(3,3-Dimethyl-4-oxo-chroman-8-yl)-piperazin-1-yl]-butoxy}-3,4-dihydro-1H-[1,8]naphthyridin-2-one] | 24
33 | O=C1CCc2ccc(OCCCCN3CCN(c4cccc5ccoc45)CC3)nc2N1 [Example A23′, 7-[4-(4-Benzofuran-7-yl-piperazin-1-yl)-butoxy]-3,4-dihydro-1H-[1,8]naphthyridin-2-one] | 39
34 | O=C1CCc2ccc(OCCCCN3CCN(c4cccc5cc[nH]c45)CC3)nc2N1 [Example A24′, 7-{4-[4-(1H-Indol-7-yl)-piperazin-1-yl]-butoxy}-3,4-dihydro-1H-[1,8]naphthyridin-2-one] | 6
35 | O=C1CCc2ccc(OCCCCN3CCN(c4cccc5[nH]ccc45)CC3)nc2N1 [Example A25′, 7-{4-[4-(1H-Indol-4-yl)-piperazin-1-yl]-butoxy}-3,4-dihydro-1H-[1,8]naphthyridin-2-one] | 36
36 | Cn1ccc2c(N3CCN(CCCCOc4ccc5c(n4)NC(=O)CC5)CC3)cccc21 [Example A26′, 7-{4-[4-(1-Methyl-1H-indol-4-yl)-piperazin-1-yl]-butoxy}-3,4-dihydro-1H-[1,8]naphthyridin-2-one] | 12
